{
  "source": "patent US20100285964A1",
  "about": "“SALTS OF 2-IODO-N-[(4-METHOXY-6-METHYL-1,3, 5-TRIAZINE-2-YL) CARBAMOYL] BENZENESULFONAMIDE, METHOD FOR THE PRODUCTION THEREOF AND USE THEREOF AS HERBICIDES AND PLANT GROWTH REGULATORS” (BayerCropScience AG, priority 2007, published 2010)",
  "format_in_all_cases": "in vivo",
  "key": {"Fagopyran repens": {"system": "Fagopyran repens", "assay": "Post-emergence herbicidal action, outdoor trial (Table A-2)", "conditions": "2-4-leaf stage, 28 days after application", "text": "(§1) In a further direct comparison, under outdoor trial conditions (time of application 2-4-leaf stage of the weeds examined), the activities of the weed control of the free acid “2-iodo-N-[(4-methoxy-6-methyl-1,3,5-triazin-2-yl)carbamoyl]benzene-sulfonamide” known from DE 27 15 786 were compared to the inventive Na^+ salt of 2-iodo-N-[(4-methoxy-6-methyl-1,3,5-triazin-2-yl)carbamoyl]benzenesulfonamide (compounds I-2 according to the invention) at various application rates, evaluation being carried out 28 days after application. With respect to the activity, the weeds Chenopodium album, Fagopyran repens and Pennisetum glauca were scored according to the scheme below:\n(§2) 0%=no control 100%=complete control"}, "Chenopodium album": {"system": "Chenopodium album", "assay": "Post-emergence herbicidal action, outdoor trial (Table A-2)", "conditions": "2-4-leaf stage, 28 days after application", "text": "as §1, §2"}, "Pennisetum glauca": {"system": "Pennisetum glauca", "assay": "Post-emergence herbicidal action, outdoor trial (Table A-2)", "conditions": "30 g of ai/ha (acid equivalent for salt), 2-4-leaf stage, 28 days after application", "text": "as §1, §2"}, "[1]": {"system": "oilseed rape (Brassica napus)", "assay": "Replanting behavior, crop sown in treated soil", "conditions": "scored after four weeks", "experimental": "(§3) In further tests, various dosages of the test substances were worked into the soil. Subsequently, various crop plants were sown in plastic pots filled with the treated soil and cultivated in a greenhouse using a day/night rhythm of 22° C./14° C. After four weeks, the plants were scored according to the scheme below.\n(§4) 0%=no damage 100%=complete damage"}, "broad bean (Vicia faba)": {"system": "broad bean (Vicia faba)", "assay": "Replanting behavior, crop sown in treated soil", "conditions": "scored after four weeks", "experimental": "as §3, §4"}, "sugar beet": {"system": "sugar beet", "assay": "Replanting behavior, crop sown in treated soil", "conditions": "scored after four weeks", "experimental": "as §3, §4"}, "[2]": {"system": "Amaranthus retroflexus, Lolium multiflorum, Abuthilon theophrasti, Matricaria inodora, Ipomoea purpurea, Panicum minor, Stellaria media, Solanum nigrum …", "assay": "Post-emergence herbicidal action, greenhouse", "conditions": "post-emergence method, application rate of 0.08 kg or less of active substance per hectare, scored after about 10 to 28 days", "experimental": "Seeds or rhizome pieces of monocotyledonous and dicotyledonous weeds were placed in sandy loam in plastic pots, covered with soil and cultivated in a greenhouse under good growth conditions. Three weeks after sowing, the test plants were treated at the three-leaf stage. The compounds according to the invention, formulated as wettable powders or as emulsion concentrates, were sprayed onto the green parts of the plants at various dosages using a water application rate of from 100 to 800 l/ha (converted)."}, "[3]": {"system": "Matricaria inodora, Papaver rhoeas, Stellaria media and Viola tricolor", "assay": "Pre-emergence herbicidal action, greenhouse", "conditions": "pre-emergence method, application rate of 0.08 kg or less of active substance per hectare, scored after 3 to 4 weeks", "text": "Seeds or rhizome pieces of mono- and dicotyledonous weeds were placed in sandy loam in cardboard pots and covered with soil. The compounds according to the invention, formulated in the form of wettable powders or emulsion concentrates, were then applied to the surface of the covering soil in the form of aqueous suspensions or emulsions at an application rate of 100 to 800 l of water/ha (converted), at various dosages.\nAfter the treatment, the pots were placed in a greenhouse and kept under good growth conditions for the weeds. The visual scoring of the damage to the plants or the emergence damage was carried out after the emergence of the test plants after a test period of 3 to 4 weeks, by comparison with untreated controls. As shown by the results, the compounds according to the invention have good herbicidal pre-emergence activity against a broad spectrum of weed grasses and broad-leaved weeds."}, "Panicum minor": {"system": "Panicum minor", "assay": "Post-emergence herbicidal action, field trial (Table A-1)", "conditions": "20 g of ai/ha (acid equivalent for salts), 3-5-leaf stage, 25 days after application, 0%=no control, 100%=complete control", "text": "(§5) In a direct comparison, under field trial conditions (time of application 3-5-leaf stage of the weeds examined), the activities of the weed control of the free acid “2-iodo-N-[(4-methoxy-6-methyl-1,3,5-triazin-2-yl)carbamoyl]benzenesulfonamide” known from DE 27 15 786 were compared to individual salts according to the invention of 2-iodo-N-[(4-methoxy-6-methyl-1,3,5-triazin-2-yl)carbamoyl]benzenesulfonamide (compound I-3 (potassium salt of 2-iodo-N-[(4-methoxy-6-methyl-1,3,5-triazin-2-yl)carbamoyl]benzenesulfonamide) and 1-4 (magnesium salt of 2-iodo-N-[(4-methoxy-6-methyl-1,3,5-triazin-2-yl)carbamoyl]benzenesulfonamide)), evaluation being carried out 25 days after application. With respect to the activity, both a representative of a monocotyledonous weed (Panicum minor) and a representative of a dicotyledonous weed (Solanum nigrum) were scored according to the scheme below:\nas §2"}, "Solanum nigrum": {"system": "Solanum nigrum", "assay": "Post-emergence herbicidal action, field trial (Table A-1)", "conditions": "20 g of ai/ha (acid equivalent for salts), 3-5-leaf stage, 25 days after application, 0%=no control, 100%=complete control", "text": "as §5, §2"}, "[4]": {"conditions": "15 g of ai/ha (acid equivalent for salt)"}, "[5]": {"conditions": "30 g of ai/ha (acid equivalent for salt)"}, "[6]": {"conditions": "0.1 g of ai/ha worked into the soil"}, "[7]": {"conditions": "0.5 g of ai/ha worked into the soil"}, "[8]": {"conditions": "1.9 g of ai/ha worked into the soil"}, "[9]": {"conditions": "7.5 g of ai/ha worked into the soil"}, "[10]": {"conditions": "30 g of ai/ha worked into the soil, 0%=no damage, 100%=complete damage"}},
  "data": [
    {"molecule": "COc1nc(C)nc(NC(=O)NS(=O)(=O)c2ccccc2I)n1.[Na]", "note": "[Compound I-2, 2-Iodo-N-[(4-methoxy-6-methyl-1,3,5-triazin-2-yl)carbamoyl]benzenesulfonamide sodium salt]", "values": [
      {"measurement": "Fagopyran repens Control in %", "setting": "Fagopyran repens; [4]", "value": 30, "unit": "%"},
      {"measurement": "Fagopyran repens Control in %", "setting": "Fagopyran repens; [5]", "value": 45, "unit": "%"},
      {"measurement": "Chenopodium album Control in %", "setting": "Chenopodium album; [4]", "value": 93, "unit": "%"},
      {"measurement": "Chenopodium album Control in %", "setting": "Chenopodium album; [5]", "value": 100, "unit": "%"},
      {"measurement": "Pennisetum glauca Control in %", "setting": "Pennisetum glauca", "value": 85, "unit": "%"},
      {"measurement": "Brassica napus damage in %", "setting": "[1]; [6]", "value": 0, "unit": "%"},
      {"measurement": "Brassica napus damage in %", "setting": "[1]; [7]", "value": 1, "unit": "%"},
      {"measurement": "Brassica napus damage in %", "setting": "[1]; [8]", "value": 29, "unit": "%"},
      {"measurement": "Brassica napus damage in %", "setting": "[1]; [9]", "value": 83, "unit": "%"},
      {"measurement": "Brassica napus damage in %", "setting": "[1]; [10]", "value": 94, "unit": "%"},
      {"measurement": "Vicia faba damage in %", "setting": "broad bean (Vicia faba); [6]", "value": 2.5, "unit": "%"},
      {"measurement": "Vicia faba damage in %", "setting": "broad bean (Vicia faba); [7]", "value": 2.5, "unit": "%"},
      {"measurement": "Vicia faba damage in %", "setting": "broad bean (Vicia faba); [8]", "value": 2.5, "unit": "%"},
      {"measurement": "Vicia faba damage in %", "setting": "broad bean (Vicia faba); [9]", "value": 49, "unit": "%"},
      {"measurement": "Vicia faba damage in %", "setting": "broad bean (Vicia faba); [10]", "value": 93, "unit": "%"},
      {"measurement": "Sugar beet damage in %", "setting": "sugar beet; [6]", "value": 0, "unit": "%"},
      {"measurement": "Sugar beet damage in %", "setting": "sugar beet; [7]", "value": 1, "unit": "%"},
      {"measurement": "Sugar beet damage in %", "setting": "sugar beet; [8]", "value": 61, "unit": "%"},
      {"measurement": "Sugar beet damage in %", "setting": "sugar beet; [9]", "value": 85, "unit": "%"},
      {"measurement": "Sugar beet damage in %", "setting": "sugar beet; [10]", "value": 92, "unit": "%"},
      {"measurement": "herbicidal activity, post-emergence (visual scoring)", "setting": "[2]", "value": "very good herbicidal activity"},
      {"measurement": "herbicidal activity, pre-emergence (visual scoring)", "setting": "[3]", "value": "very good herbicidal activity"}
    ]},
    {"molecule": "2-Iodo-N-[(4-methoxy-6-methyl-1,3,5-triazin-2-yl)carbamoyl]benzenesulfonamide tetraethylammonium salt [Compound I-12]", "values": [
      {"measurement": "herbicidal activity, post-emergence (visual scoring)", "setting": "[2]", "value": "very good herbicidal activity"},
      {"measurement": "herbicidal activity, pre-emergence (visual scoring)", "setting": "[3]", "value": "very good herbicidal activity"}
    ]},
    {"molecule": "COc1nc(C)nc(NC(=O)NS(=O)(=O)c2ccccc2I)n1", "note": "[2-Iodo-N-[(4-methoxy-6-methyl-1,3,5-triazin-2-yl)carbamoyl]benzenesulfonamide, reference compound]", "values": [
      {"measurement": "Fagopyran repens Control in %", "setting": "Fagopyran repens; [4]", "value": 25, "unit": "%"},
      {"measurement": "Fagopyran repens Control in %", "setting": "Fagopyran repens; [5]", "value": 40, "unit": "%"},
      {"measurement": "Chenopodium album Control in %", "setting": "Chenopodium album; [4]", "value": 90, "unit": "%"},
      {"measurement": "Chenopodium album Control in %", "setting": "Chenopodium album; [5]", "value": 98, "unit": "%"},
      {"measurement": "Pennisetum glauca Control in %", "setting": "Pennisetum glauca", "value": 80, "unit": "%"},
      {"measurement": "Panicum minor control in %", "setting": "Panicum minor", "value": 0, "unit": "%"},
      {"measurement": "Solanum nigrum control in %", "setting": "Solanum nigrum", "value": 70, "unit": "%"}
    ]},
    {"molecule": "COc1nc(C)nc(NC(=O)NS(=O)(=O)c2ccccc2I)n1.[Mg]", "note": "[Compound I-4, 2-Iodo-N-[(4-methoxy-6-methyl-1,3,5-triazin-2-yl)carbamoyl]benzenesulfonamide magnesium salt]", "values": [
      {"measurement": "herbicidal activity, post-emergence (visual scoring)", "setting": "[2]", "value": "very good herbicidal activity"},
      {"measurement": "Panicum minor control in %", "setting": "Panicum minor", "value": 48, "unit": "%"},
      {"measurement": "Solanum nigrum control in %", "setting": "Solanum nigrum", "value": 85, "unit": "%"},
      {"measurement": "herbicidal activity, pre-emergence (visual scoring)", "setting": "[3]", "value": "very good herbicidal activity"}
    ]},
    {"molecule": "2-Iodo-N-[(4-methoxy-6-methyl-1,3,5-triazin-2-yl)carbamoyl]benzenesulfonamide tetrabutylammonium salt [Compound I-18]", "values": [
      {"measurement": "herbicidal activity, post-emergence (visual scoring)", "setting": "[2]", "value": "very good herbicidal activity"},
      {"measurement": "herbicidal activity, pre-emergence (visual scoring)", "setting": "[3]", "value": "very good herbicidal activity"}
    ]},
    {"molecule": "COc1nc(C)nc(NC(=O)NS(=O)(=O)c2ccccc2I)n1.[K]", "note": "[Compound I-3, 2-Iodo-N-[(4-methoxy-6-methyl-1,3,5-triazin-2-yl)carbamoyl]benzenesulfonamide potassium salt]", "values": [
      {"measurement": "herbicidal activity, post-emergence (visual scoring)", "setting": "[2]", "value": "very good herbicidal activity"},
      {"measurement": "Panicum minor control in %", "setting": "Panicum minor", "value": 30, "unit": "%"},
      {"measurement": "Solanum nigrum control in %", "setting": "Solanum nigrum", "value": 84, "unit": "%"},
      {"measurement": "herbicidal activity, pre-emergence (visual scoring)", "setting": "[3]", "value": "very good herbicidal activity"}
    ]},
    {"molecule": "COc1nc(C)nc(NC(=O)NS(=O)(=O)c2ccccc2I)n1.[Li]", "note": "[Compound I-1, 2-Iodo-N-[(4-methoxy-6-methyl-1,3,5-triazin-2-yl)carbamoyl]benzenesulfonamide lithium salt]", "values": [
      {"measurement": "herbicidal activity, post-emergence (visual scoring)", "setting": "[2]", "value": "very good herbicidal activity"},
      {"measurement": "herbicidal activity, pre-emergence (visual scoring)", "setting": "[3]", "value": "very good herbicidal activity"}
    ]},
    {"molecule": "COc1nc(C)nc(NC(=O)NS(=O)(=O)c2ccccc2I)n1.NCCO", "note": "[Compound I-19, 2-Iodo-N-[(4-methoxy-6-methyl-1,3,5-triazin-2-yl)carbamoyl]benzenesulfonamide-(2-hydroxyeth-1-yl)ammonium salt]", "values": [
      {"measurement": "herbicidal activity, post-emergence (visual scoring)", "setting": "[2]", "value": "very good herbicidal activity"},
      {"measurement": "herbicidal activity, pre-emergence (visual scoring)", "setting": "[3]", "value": "very good herbicidal activity"}
    ]}
  ]
}
